Results reported in US20160235778A1, “COMPOSITIONS CONTAINING PUFA, URIDINE AND CHOLINE AND METHODS OF USE THEREOF” (MASSACHUSETTS INSTITUTE OF TECHNOLOGY, priority 2014, published 2016).

Assays:
[1] = tested on: brain phospholipids; test: Brain phospholipid levels in gerbils given UMP diet and/or PUFA by gavage; type: in vivo, gerbil; set-up: PC / PE / PS / PI: unit not given here
Experimental: Control standard diet (Table 4) consisted of Teklad Global 16% protein rodent diet (Harlan Teklad, Madison, Wis.), which contained 0.1% choline chloride (CC), corresponding to a daily dose of 50 mg/kg/day. UMP was provided as 0.5% UMP·2Na^+ weight/weight, added to the control diet, also prepared by Harlan Teklad, corresponding to 240 mg/kg/day UMP. DHA was administered as 300 mg/kg/day in 200 microliter (mcL)/day 5% Arabic Gum solution, while groups not receiving DHA were administered vehicle (5% Arabic Gum) alone. DHA was provided by Nu-Chek Prep (Elysian, MN) and UMP by Numico (Wagenigen, NL).
Gerbils were anesthetized with ketamine and xylazine (80 and 10 mg/kg bwt, i.p.) and sacrificed by immersing the head into liquid nitrogen for 2 min, followed by decapitation. Brains were immediately and quickly (30 seconds) removed using a bone rongeur and stored at −80° C.
Frozen brain hemispheres were weighed and homogenized in 100 volumes of ice-cold deionized water using a tissue degrader (Polytron PT 10-35, Kinematica AG, Switzerland), then analyzed as described in Example 1.
Protein in whole brain homogenate sample was measured for using bicinchoninic acid reagent (Perkin Elmer, Norwalk, Conn., USA). DNA was measured by measuring 460 nm emission of samples on a fluorometer in the presence of bisbenzimidizole, a fluorescent dye known as Hoechst H 33258 (American Hoechst Corporation), which has an excitation maximum at 356 nm and an emission maximum of 458 when bound to DNA.
Male gerbils weighing 80-100 g were divided into 4 groups of 8 gerbils and administered the supplements depicted in Table 1:
Adult gerbils were administered control standard diet (Table 4) with our without 0.5% UMP and/or 300 mg/kg/day DHA, EPA, or AA. Groups not receiving DHA were administered vehicle (5% Arabic Gum) alone.

[2] = tested on: brain CDP-choline; test: Brain CDP-choline and CDP-ethanolamine levels (HPLC); type: in vivo; conditions: gerbil
Experimental: FIG. 5A-B. Effects of DHA on brain CDP-choline levels (FIG. 5A) and CDP-ethanolamine levels (FIG. 5B). Groups of 8 gerbils received either a control or a UMP-containing diet, and, by gavage, DHA (in a vehicle of 5% gum Arabic solution) or 5% gum Arabic solution alone for 28 days. On the 29th day brains were harvested and assayed for CDP-choline. Data are presented as means±SEM. Statistical analysis was performed using one- or two-way ANOVA followed by Tukey test. a: P<0.05 when compared with the values for control diet plus vehicle group; b: P<0.05 when compared with values for UMP diet plus vehicle group.
Aliquots (2 ml) of the upper (aqueous) phase were dried under a vacuum, reconstituted, and injected into an HPLC. The dried samples were reconstituted in 100-200 μl water and were analyzed by HPLC on an anion exchange column (Alltech Hypersil APS-2, […], 250×4.6 mm). CDP-choline was eluted with a linear gradient of buffers A (H3PO4, 1.75 mM, pH 2.9) and B (NaH2PO2, 500 mM, pH 4.5) from 0 to 100% B over period of 30 min. With this system, CDP-choline was resolved from closely co-eluting substances such as UMP in an isocratic system over a period of 40 min. The retention time for CDP-choline was 9.5 min. The column was washed with buffer B at the end of each experiment and every several days to remove retained nucleotides. Individual nucleotide peaks were detected by UV absorption at 280 nm and were identified by comparison with the positions of authentic standards, as well as by the addition of nucleotide standards to samples.

[3] = tested on: hippocampal dendritic spines; test: Hippocampal dendritic spine numbers in pups of treated pregnant and nursing mothers; type: in vivo; conditions: rat pups, mothers treated 10 days before parturition and 20 days while nursing
Text: In another study, pregnant rats were allowed to consume ad libitum, for 10 days before parturition and 20 days while nursing, either a choline-containing control diet or this diet supplemented with uridine as UMP; half of each group also received DHA or its diluent daily, by gavage. Pups were then sacrificed and brain slices were examined to determine numbers of hippocampal dendritic spines.

[4] = tested on: SHSY-5Y cells; test: 14C-choline incorporation into phospholipids in SHSY-5Y cells; type: cell-based, human
Experimental: SHSY-5Y cells were grown to near confluency in DMEM+10% FBS in 35 mm dishes. Cells were incubated for 18 hr in serum-free DMEM+1% FBS containing 30 μM choline+/−10 μM of DHA, arachidonic acid, or palmitic acid. Cells were then labeled, and labeled phospholipids were quantified as described for Example 1.
DHA was dissolved in ethanol to a […] concentration and frozen in 10 microliter aliquots at −80° C. For each experiment, one aliquot was diluted in ethanol to 10 micromolar; the volume giving the desired final solution in incubation medium was mixed with an equal volume of BSA solution (1 gm/ml).
The effect of arachidonic acid on phospholipid synthesis in SHSY-5Y cells was further characterized as described for omega-3 fatty acids and PC-12 cells in Example 2. […] Thus, omega-6 fatty acids stimulate synthesis of a variety of phospholipids in a dose-dependent manner.

[5] = gerbil brain, 3 weeks, 0.5% UMP and/or 300 mg/kg/day PUFA, Table 6
[6] = gerbil brain, 4 weeks, normalized to DNA levels, mean +/- SEM
[7] = gerbil brain, 4 weeks, normalized to protein levels, mean +/- SEM
[8] = gerbil brain, Table 5 part B, One week
[9] = gerbil brain, Table 5 part B, Three weeks
[10] = gerbil, Table 5A study, vs control

CCC=CCC=CCC=CCC=CCC=CCCCC(=O)O [EPA, 5,8,11,14,17-eicosapentaenoic acid] was tested, and the PC [1, 5] was 125 ± 8, the PE [1, 5] was 76 ± 4 and the PI [1, 5] was 22 ± 2. The PS [1, 5] was 31 ± 1, the SM [1, 5] was 26 ± 3 and the “Total PL” value [1, 5] was 347 ± 19. The “brain phospholipid levels, in words” value ([1]; gerbil, 3 weeks) was “increased phospholipid levels”.

In the case of O=c1ccn([C@@H]2O[C@H](COP(=O)(O)O)[C@@H](O)[C@H]2O)c(=O)[nH]1 [UMP, uridine monophosphate], the PC [1, 5] is reported as 131 ± 2, the PE [1, 5] is reported as 70 ± 1 and the PI [1, 5] is reported as 16 ± 1. For the same compound, the PS [1, 5] was 29 ± 1, the SM [1, 5] was 22 ± 1 and the “Total PL” value [1, 5] was 332 ± 5. For the same compound, the PC [1, 6] was 368 ± 10, the PE [1, 6] was 195 ± 9 and the PI [1, 6] was 78 ± 6. The PS [1, 6] was 86 ± 7, the SM [1, 6] was 111 ± 4 and the “Total PL” value [1, 6] was 878 ± 18. For the same compound, the PC [1, 7] was 171 ± 8, the PE [1, 7] was 84 ± 8 and the PI [1, 7] was 31 ± 2. The PS [1, 7] was 35 ± 3, the SM [1, 7] was 52 ± 5 and the “Total PL” value [1, 7] was 367 ± 22. For the same compound, the “increase in levels of total phospholipids” value ([1]; gerbil brain, 4 weeks, vs control group) was 5%, the PtdCho ([1]; gerbil brain, Table 5 part A) was 171 ± 8 nmol/mg prt and the PtdEtn ([1]; gerbil brain, Table 5 part A) was 64 ± 8 nmol/mg prt. For the same compound, the PtdIns ([1]; gerbil brain, Table 5 part A) was 31 ± 2 nmol/mg prt, the PtdSer ([1]; gerbil brain, Table 5 part A) was 35 ± 3 nmol/mg prt and the SM ([1]; gerbil brain, Table 5 part A) was 52 ± 5 nmol/mg prt. For the same compound, the “Total PL” value ([1]; gerbil brain, Table 5 part A) was 367 ± 22 nmol/mg prt, the PtdCho [1, 8] was 154 ± 6 nmol/mg prt and the PtdEtn [1, 8] was 63 ± 4 nmol/mg prt. For the same compound, the PtdIns [1, 8] was 20 ± 4 nmol/mg prt, the PtdSer [1, 8] was 39 ± 1 nmol/mg prt and the SM [1, 8] was 49 ± 3 nmol/mg prt. The “Total PL” value [1, 8] was 390 ± 21 nmol/mg prt, the PtdCho [1, 9] was 199 ± 5 nmol/mg prt and the PtdEtn [1, 9] was 87 ± 4 nmol/mg prt. For the same compound, the PtdIns [1, 9] was 25 ± 1 nmol/mg prt, the PtdSer [1, 9] was 42 ± 2 nmol/mg prt and the SM [1, 9] was 70 ± 4 nmol/mg prt. The “Total PL” value [1, 9] was 479 ± 6 nmol/mg prt, the “effect on brain phospholipids after 1 week of treatment” value ([1]; gerbil, 1 week) was “no significant effects” and the “increase in brain level of PC” value [1, 10] was 13%. For the same compound, the “increase in brain level of PE” value [1, 10] was 29%, the “increase in brain level of PI” value [1, 10] was 48% and the “increases in brain phospholipids, in words” value ([1]; gerbil, treatment for 3 weeks) was “smaller but still significant increases”. The “brain CDP-choline levels, in words” value ([2]; FIG. 5A) was “decreased”, the “brain CDP-ethanolamine levels, in words” value ([2]; FIG. 5B) was “decreased” and the “Increase over control (%)” value [3] was 28%. It also gave a Number of spines [3] of 68.

For CCCCCC=CCC=CCC=CCC=CCCCC(=O)O [arachidonic acid, 5,8,11,14-eicosatetraenoic acid], the phospholipid synthesis ([4]; 18 h with 10 μM fatty acid, FIG. 3A) was “enhanced”, the “synthesis of total phospholipids, PC and phosphatidylethanolamine” value ([4]; range of dosages, dose-dependent, FIG. 3B) was “increased synthesis” and the “brain phospholipid levels, in words” value ([1]; gerbil, 3 weeks) was “increased phospholipid levels”.
